{"source": "patent US20080199517A1", "about": "“Composition and a process thereof” (priority 2007, published 2008)", "test_system": "castrated male adolescent rats", "experiment": "Anabolic activity in castrated rats: organ weight", "format": "in vivo, rats of Swiss Wistar strain", "settings": "castrated animals, result in words", "procedure": "Male Adolescent rats of Swiss Wistar strain of body weight 55 gms are chosen for this experiment and are castrated. The castrated groups are divided into 2 groups. • 1. Control group castrated animals n=6 • 2. Drug treated castrated animals treated with test compound at 25 mg/kg n=6\nBoth the groups are fed ad libitum food and water and observed for 28 days. Their serum at the beginning of the experiment and at the end of the experiment are drawn and checked for Total testosterone, and free testosterone. The animals are sacrificed at the end of the experiment and seminal vesicle; ventral Prostate and Levator Ani are removed and weighed. These organ weights are compound with the control animals."}
{"smiles": "CC(COC1OC(CO)C(O)C(O)C1O)C(C)CC1(O)CC2CC3C4CC=C5CC(OC6OC(CO)C(O)C(O)C6OC6OC(C)C(O)C(O)C6O)CCC5(C)C4CCC3(C)C2C1C", "note": "(stereo not shown) [saponin of structural formula I]", "values": [{"measurement": "anabolic activity", "result": "does not showed any activity"}]}
